{"source": "patent US20200383964A1", "about": "“MITOCHONDRIA TARGETING, MPTP REGULATION, AND THE REDUCTION OF MITOCHONDRIAL REACTIVE SPECIES” (priority 2017, published 2020)", "origin": "cited, not measured here", "tested_on": "mitochondrial permeability transition pore (MPTP)"}
{"smiles": "CC(=O)C=O", "note": "[Methylglyoxal, methylglyoxal]", "values": [{"measurement": "suppression of permeability transition", "setting": "incubation with isolated mitochondria, covalent binding to the MPTP", "result": "complete suppression"}, {"measurement": "time to suppression of the permeability transition", "setting": "isolated mitochondria", "result": "≤ 5", "unit": "min"}]}
